Assay results published in PubChem BioAssay (NCI).
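In this assay, cells in 96-well plates receive the compound at five concentrations for 48 hours. Endpoints are linearly interpolated between the surrounding concentrations. TGI is the concentration that stops growth completely.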

Legend:
Assay in all cases: NCI-60 cell line screen, 48 h
786-0 renal = test system: 786-0 renal
A498 renal = test system: A498 renal
A549 NSCLC = test system: A549 NSCLC
ACHN renal = test system: ACHN renal
CAKI-1 renal = test system: CAKI-1 renal
CCRF-CEM leukemia = test system: CCRF-CEM leukemia
COLO 205 colon = test system: COLO 205 colon
DLD-1 colon = test system: DLD-1 colon
DMS 114 small cell lung = test system: DMS 114 small cell lung
DMS 273 small cell lung = test system: DMS 273 small cell lung
EKVX NSCLC = test system: EKVX NSCLC
HCC-2998 colon = test system: HCC-2998 colon
HCT-116 colon = test system: HCT-116 colon
HCT-15 colon = test system: HCT-15 colon
HL-60(TB) leukemia = test system: HL-60(TB) leukemia
HOP-18 NSCLC = test system: HOP-18 NSCLC
HOP-62 NSCLC = test system: HOP-62 NSCLC
HOP-92 NSCLC = test system: HOP-92 NSCLC
HT29 colon = test system: HT29 colon
IGROV1 ovarian = test system: IGROV1 ovarian
K-562 leukemia = test system: K-562 leukemia
KM12 colon = test system: KM12 colon
KM20L2 colon = test system: KM20L2 colon
LOX IMVI melanoma = test system: LOX IMVI melanoma
LXFL 529 NSCLC = test system: LXFL 529 NSCLC
M14 melanoma = test system: M14 melanoma
M19-MEL melanoma = test system: M19-MEL melanoma
MALME-3M melanoma = test system: MALME-3M melanoma
MOLT-4 leukemia = test system: MOLT-4 leukemia
NCI-H226 lung = test system: NCI-H226 lung
NCI-H23 lung = test system: NCI-H23 lung
NCI-H460 lung = test system: NCI-H460 lung
NCI-H522 lung = test system: NCI-H522 lung
OVCAR-3 ovarian = test system: OVCAR-3 ovarian
OVCAR-4 ovarian = test system: OVCAR-4 ovarian
OVCAR-5 ovarian = test system: OVCAR-5 ovarian
OVCAR-8 ovarian = test system: OVCAR-8 ovarian
RPMI-8226 leukemia = test system: RPMI-8226 leukemia
RXF 393 renal = test system: RXF 393 renal
SF-268 CNS = test system: SF-268 CNS
SF-295 CNS = test system: SF-295 CNS
SF-539 CNS = test system: SF-539 CNS
SK-MEL-2 melanoma = test system: SK-MEL-2 melanoma
SK-MEL-28 melanoma = test system: SK-MEL-28 melanoma
SK-MEL-5 melanoma = test system: SK-MEL-5 melanoma
SK-OV-3 ovarian = test system: SK-OV-3 ovarian
SN12C renal = test system: SN12C renal
SNB-19 CNS = test system: SNB-19 CNS
SNB-75 CNS = test system: SNB-75 CNS
SNB-78 CNS = test system: SNB-78 CNS
SR leukemia = test system: SR leukemia
SW-620 colon = test system: SW-620 colon
TK-10 renal = test system: TK-10 renal
U251 CNS = test system: U251 CNS
UACC-257 melanoma = test system: UACC-257 melanoma
UACC-62 melanoma = test system: UACC-62 melanoma
UO-31 renal = test system: UO-31 renal

**Q.** What does the source list for `O=C1C2C=CC(n3[nH]c(=O)n(Cc4ccccc4)c3=O)CC2C(=O)N1c1ccc(Br)cc1` (configuration not stated)?
**A.** TGI (786-0 renal): > 100 µM; TGI (A498 renal): > 100 µM; TGI (A549 NSCLC): > 100 µM; TGI (ACHN renal): > 100 µM; TGI (CAKI-1 renal): > 100 µM; TGI (CCRF-CEM leukemia): > 100 µM; TGI (COLO 205 colon): > 100 µM; TGI (DLD-1 colon): > 100 µM; TGI (DMS 114 small cell lung): > 100 µM; TGI (DMS 273 small cell lung): > 100 µM; TGI (EKVX NSCLC): > 100 µM; TGI (HCC-2998 colon): > 100 µM; TGI (HCT-116 colon): > 100 µM; TGI (HCT-15 colon): > 100 µM; TGI (HL-60(TB) leukemia): > 100 µM; TGI (HOP-18 NSCLC): > 100 µM; TGI (HOP-62 NSCLC): > 100 µM; TGI (HOP-92 NSCLC): > 100 µM; TGI (HT29 colon): > 100 µM; TGI (IGROV1 ovarian): > 100 µM; TGI (K-562 leukemia): > 100 µM; TGI (KM12 colon): > 100 µM; TGI (KM20L2 colon): > 100 µM; TGI (LOX IMVI melanoma): > 100 µM; TGI (LXFL 529 NSCLC): > 100 µM; TGI (M14 melanoma): > 100 µM; TGI (M19-MEL melanoma): > 100 µM; TGI (MALME-3M melanoma): > 100 µM; TGI (MOLT-4 leukemia): > 100 µM; TGI (NCI-H226 lung): > 100 µM; TGI (NCI-H23 lung): > 100 µM; TGI (NCI-H460 lung): > 100 µM; TGI (NCI-H522 lung): > 100 µM; TGI (OVCAR-3 ovarian): > 100 µM; TGI (OVCAR-4 ovarian): > 100 µM; TGI (OVCAR-5 ovarian): > 100 µM; TGI (OVCAR-8 ovarian): > 100 µM; TGI (RPMI-8226 leukemia): > 100 µM; TGI (RXF 393 renal): > 100 µM; TGI (SF-268 CNS): > 100 µM; TGI (SF-295 CNS): > 100 µM; TGI (SF-539 CNS): > 100 µM; TGI (SK-MEL-2 melanoma): > 100 µM; TGI (SK-MEL-28 melanoma): > 100 µM; TGI (SK-MEL-5 melanoma): > 100 µM; TGI (SK-OV-3 ovarian): > 100 µM; TGI (SN12C renal): > 100 µM; TGI (SNB-19 CNS): > 100 µM; TGI (SNB-75 CNS): > 100 µM; TGI (SNB-78 CNS): > 100 µM; TGI (SR leukemia): > 100 µM; TGI (SW-620 colon): > 100 µM; TGI (TK-10 renal): > 100 µM; TGI (U251 CNS): > 100 µM; TGI (UACC-257 melanoma): > 100 µM; TGI (UACC-62 melanoma): > 100 µM; TGI (UO-31 renal): > 100 µM

**Q.** For `COc1ccc(C)cc(=O)c1O`, which TGI (786-0 renal) is on record?
**A.** The TGI was > 100 µM.

**Q.** And the TGI (A498 renal)?
**A.** The TGI was > 100 µM.

**Q.** And the TGI (A549 NSCLC)?
**A.** The TGI was > 100 µM.

**Q.** And the TGI (ACHN renal)?
**A.** Its TGI is > 100 µM.

**Q.** What about the TGI (CAKI-1 renal) of the same compound?
**A.** Its TGI is > 100 µM.

**Q.** What about the TGI (CCRF-CEM leukemia) of the same compound?
**A.** Its TGI is 72.5 µM.

**Q.** And the TGI (COLO 205 colon)?
**A.** The TGI was > 100 µM.

**Q.** What about the TGI (DLD-1 colon) of the same compound?
**A.** Its TGI is > 100 µM.

**Q.** What about the TGI (DMS 114 small cell lung) of the same compound?
**A.** Its TGI is 50.4 µM.

**Q.** What about the TGI (DMS 273 small cell lung) of the same compound?
**A.** The TGI was > 100 µM.

**Q.** And the TGI (EKVX NSCLC)?
**A.** The TGI was > 100 µM.

**Q.** What about the TGI (HCT-116 colon) of the same compound?
**A.** The TGI was > 100 µM.

**Q.** And the TGI (HCT-15 colon)?
**A.** Its TGI is > 100 µM.

**Q.** And the TGI (HL-60(TB) leukemia)?
**A.** The TGI was 61.5 µM.

**Q.** And the TGI (HOP-18 NSCLC)?
**A.** Its TGI is > 100 µM.

**Q.** And the TGI (HOP-62 NSCLC)?
**A.** The TGI was > 100 µM.

**Q.** What about the TGI (HOP-92 NSCLC) of the same compound?
**A.** The TGI was > 100 µM.

**Q.** And the TGI (HT29 colon)?
**A.** Its TGI is > 100 µM.

**Q.** What about the TGI (IGROV1 ovarian) of the same compound?
**A.** The TGI was > 100 µM.

**Q.** What about the TGI (K-562 leukemia) of the same compound?
**A.** The TGI was > 100 µM.

**Q.** What about the TGI (KM12 colon) of the same compound?
**A.** Its TGI is > 100 µM.

**Q.** And the TGI (KM20L2 colon)?
**A.** The TGI was > 100 µM.

**Q.** And the TGI (LOX IMVI melanoma)?
**A.** Its TGI is 79.7 µM.

**Q.** And the TGI (LXFL 529 NSCLC)?
**A.** Its TGI is > 100 µM.

**Q.** What about the TGI (M14 melanoma) of the same compound?
**A.** The TGI was > 100 µM.

**Q.** What about the TGI (M19-MEL melanoma) of the same compound?
**A.** Its TGI is > 100 µM.

**Q.** And the TGI (MALME-3M melanoma)?
**A.** Its TGI is > 100 µM.

**Q.** What about the TGI (MOLT-4 leukemia) of the same compound?
**A.** The TGI was > 100 µM.

**Q.** And the TGI (NCI-H226 lung)?
**A.** The TGI was > 100 µM.

**Q.** And the TGI (NCI-H23 lung)?
**A.** The TGI was > 100 µM.

**Q.** And the TGI (NCI-H460 lung)?
**A.** The TGI was > 100 µM.

**Q.** And the TGI (NCI-H522 lung)?
**A.** Its TGI is 84.8 µM.

**Q.** And the TGI (OVCAR-3 ovarian)?
**A.** The TGI was > 100 µM.

**Q.** What about the TGI (OVCAR-4 ovarian) of the same compound?
**A.** The TGI was > 100 µM.

**Q.** And the TGI (OVCAR-5 ovarian)?
**A.** Its TGI is > 100 µM.

**Q.** And the TGI (RPMI-8226 leukemia)?
**A.** Its TGI is > 100 µM.

**Q.** And the TGI (RXF 393 renal)?
**A.** The TGI was 90 µM.

**Q.** And the TGI (SF-268 CNS)?
**A.** The TGI was > 100 µM.

**Q.** What about the TGI (SF-295 CNS) of the same compound?
**A.** Its TGI is > 100 µM.

**Q.** And the TGI (SF-539 CNS)?
**A.** Its TGI is > 100 µM.

**Q.** What about the TGI (SK-MEL-2 melanoma) of the same compound?
**A.** The TGI was > 100 µM.

**Q.** What about the TGI (SK-MEL-28 melanoma) of the same compound?
**A.** The TGI was > 100 µM.

**Q.** What about the TGI (SK-MEL-5 melanoma) of the same compound?
**A.** Its TGI is > 100 µM.

**Q.** What about the TGI (SK-OV-3 ovarian) of the same compound?
**A.** Its TGI is > 100 µM.

**Q.** What about the TGI (SN12C renal) of the same compound?
**A.** Its TGI is > 100 µM.

**Q.** What about the TGI (SNB-19 CNS) of the same compound?
**A.** Its TGI is > 100 µM.

**Q.** What about the TGI (SNB-75 CNS) of the same compound?
**A.** Its TGI is > 100 µM.

**Q.** And the TGI (SNB-78 CNS)?
**A.** Its TGI is > 100 µM.

**Q.** And the TGI (SR leukemia)?
**A.** The TGI was 38.6 µM.

**Q.** And the TGI (SW-620 colon)?
**A.** Its TGI is > 100 µM.

**Q.** And the TGI (TK-10 renal)?
**A.** Its TGI is > 100 µM.

**Q.** And the TGI (U251 CNS)?
**A.** Its TGI is > 100 µM.

**Q.** What about the TGI (UACC-257 melanoma) of the same compound?
**A.** The TGI was > 100 µM.

**Q.** And the TGI (UACC-62 melanoma)?
**A.** The TGI was > 100 µM.

**Q.** What about the TGI (UO-31 renal) of the same compound?
**A.** The TGI was > 100 µM.
